The values below are quoted from earlier work in patent publication US20240165081A1, “COMPOSITIONS AND METHODS FOR TREATMENT OF INSOMNIA” (priority 2022, published 2024).

This series deals with adenosine A2A receptor (Homo sapiens, UniProt P29274).
adenosine A2A receptor, sequence (P29274 whole entry): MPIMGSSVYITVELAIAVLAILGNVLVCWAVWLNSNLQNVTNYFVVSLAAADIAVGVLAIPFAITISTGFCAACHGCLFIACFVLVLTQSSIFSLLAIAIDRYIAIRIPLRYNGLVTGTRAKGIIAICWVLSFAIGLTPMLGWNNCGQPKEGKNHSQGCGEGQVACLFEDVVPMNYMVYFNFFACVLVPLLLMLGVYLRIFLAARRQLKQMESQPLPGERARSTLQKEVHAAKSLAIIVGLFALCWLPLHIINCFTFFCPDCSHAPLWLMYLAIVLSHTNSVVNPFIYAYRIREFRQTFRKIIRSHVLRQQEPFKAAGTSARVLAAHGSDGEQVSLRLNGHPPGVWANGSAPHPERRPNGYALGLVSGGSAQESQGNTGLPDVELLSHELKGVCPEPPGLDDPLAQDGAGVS

Consider `C=C(C)C1CC=C(C)CC1` [D-limonene, 4-isopropenyl-1-methylcyclohexene], for which the “binding to the adenosine A2A receptor” value is “found to bind to the adenosine A2A receptor”.
